Data reported in EP0194793A2, “9-Acyl tylosin derivatives” (Omura, Satoshi, priority 1985, dated 1986).
Values after ≈ are worked out from the molar mass of the structure shown. Like-named read-outs stand apart in the source and are kept apart here.

Legend:
[1] = test system: Bacillus subtilis KB-143(IFO 3001); experiment: Minimum inhibitory concentration, nutrient agar dilution; format: cell-based
Description: (§1) Experiment 1: Minimum Inhibitory Concentration (µg/ml)
(§2) The tylosin derivatives obtained in Examples 1 through 9 were tested for their minimum inhibitory concentrations against gram-positive and gram-negative bacteria. The tests were conducted in conventional manner by inoculating varying concentrations of the test sample on a nutrient agar test medium and incubating at 37°C for 18-20 hours. The concentrations of the test samples inhibiting the bacteria growth were measured in µg per ml as a minimum inhibitory concentration.

[2] = test system: Klebsiella pneumoniae KB13(PCI 602); experiment: as above; format: cell-based; details: for MIC: read-out: Minimum Inhibitory Concentrations
Description: as §1, §2

[3] = test system: Escherichia coli KB213 (NIHJ); experiment: as above; format: cell-based; details: 37°C, 18-20 hours; for MIC: read-out: Minimum Inhibitory Concentrations
Description: as §1, §2

[4] = test system: Staphylococcus aureus KB-210 (ATC 65380); experiment: as above; format: cell-based; details: for MIC: read-out: Minimum Inhibitory Concentrations
Description: as §1, §2

[5] = test system: Micrococcus luteus KB212 (ATCC 9341); experiment: as above; format: cell-based
Description: as §1, §2

S. pyrogenes C203 = experiment: In vivo activity in infected mice
Description: Experiment 2: In vivo Activity
The compounds obtained in Examples 2 and 4 were separately administered subcutaneously or orally to mice infected with S. pyrogenes C203. The in vivo activity was measured as ED50 (mg/kg x 2).

[6] = Bacillus subtilis KB-143(IFO 3001), nutrient agar, 37°C, 18-20 hours
[7] = Klebsiella pneumoniae KB13(PCI 602), nutrient agar, 37°C, 18-20 hours
[8] = Staphylococcus aureus KB-210 (ATC 65380), nutrient agar, 37°C, 18-20 hours
[9] = Micrococcus luteus KB212 (ATCC 9341), nutrient agar, 37°C, 18-20 hours

Row | Compound | Minimum Inhibitory Concentrations [1, 6] [µg/mL] | Minimum Inhibitory Concentrations [2, 7] [µg/mL] | Minimum Inhibitory Concentrations [3] [µg/mL] | Minimum Inhibitory Concentrations [4, 8] [µg/mL] | Minimum Inhibitory Concentrations [5, 9] [µg/mL] | other results
1 | 9-0-Acetyl-9-dihydrodemycarosyltylosin [Example 5] | 1.56 | >50 | >50 | 1.56 | 0.2 | 
2 | 9-0-Acetyl-9-dihydrotylosin [Example 1] | 0.2 | 100 | >100 | 1.56 | <0.1 | 
3 | 9-0-Benzoyl-9-dihydrodemycarosyltylosin [Example 8] | 1.56 | >100 | >100 | 1.56 | 0.2 | 
4 | 9-0-Benzoyl-9-dihydrotylosin [Example 4] | 0.2 | >100 | >100 | 0.78 | <0.1 | 
5 | 9-0-Butyryl-9-dihydrodemycarosyltylosin [Example 7] | 1.56 | >50 | >50 | 1.56 | 0.2 | 
6 | 9-0-Butyryl-9-dihydrotylosin [Example 3] | 0.4 | 100 | 100 | 1.56 | <0.1 | 
7 | 9-0-Propionyl-9-dihydrodemycarosyltylosin [Example 6] | 1.56 | >100 | >100 | 1.56 | 0.2 | 
8 | 9-0-Propionyl-9-dihydrotylosin [Example 2] | 0.2 | >100 | >100 | 0.78 | <0.1 | ED50 (S. pyrogenes C203; Oral, mice infected with S. pyrogenes C203): 12.5 mg/kg x 2; ED50 (S. pyrogenes C203; Subcutaneous, mice infected with S. pyrogenes C203): 2.5 mg/kg x 2
9 | CCC1OC(=O)CC(O)C(C)C(OC2OC(C)C(O)C(N(C)C)C2O)C(CC=O)CC(C)C(=O)C=CC(C)=CC1COC1OC(C)C(O)C(OC)C1OC (stereo not drawn) [Detyl, Demycarosyltylosin, reference compound] |  |  |  |  |  | MIC ([1]; IFO3001, Bacillus subtilis KB-143(IFO 3001), nutrient agar, 37°C, 18-20 hours, read-out: Minimum Inhibitory Concentrations): 3.12 µg/mL (≈ 4.04 µM); MIC [2, 7]: 100 µg/mL (≈ 130 µM); MIC [3]: > 100 µg/mL; MIC [4, 8]: 3.12 µg/mL (≈ 4.04 µM); MIC ([5]; ATCC9341, Micrococcus luteus KB212 (ATCC 9341), nutrient agar, 37°C, 18-20 hours, read-out: Minimum Inhibitory Concentrations): 0.2 µg/mL (≈ 0.259 µM)
10 | CC[C@H]1OC(=O)C[C@@H](O)[C@H](C)[C@@H](O[C@@H]2O[C@H](C)[C@@H](O[C@H]3C[C@@](C)(O)[C@@H](O)[C@H](C)O3)[C@H](N(C)C)[C@H]2O)[C@@H](CC=O)C[C@@H](C)C(=O)/C=C/C(C)=C/[C@@H]1CO[C@@H]1O[C@H](C)[C@@H](O)[C@@H](OC)[C@H]1OC [Tyl, Tylosin] |  |  |  |  |  | MIC ([1]; Bacillus subtilis, IFO3001, read-out: Minimum Inhibitory Concentrations): 0.78 µg/mL (≈ 0.851 µM); MIC ([2]; Klebsiella pneumoniae): > 100 µg/mL; MIC [3]: > 100 µg/mL; MIC ([4]; Staphylococcus aureus): 1.56 µg/mL (≈ 1.7 µM); MIC ([5]; Micrococcus luteus, ATCC9341, read-out: Minimum Inhibitory Concentrations): 0.2 µg/mL (≈ 0.218 µM); ED50 (S. pyrogenes C203; Mus musculus, po): 50 mg/kg; ED50 (S. pyrogenes C203; Mus musculus, sc): 1 mg/kg
